In patent US20230220065A1, “ANTIBODIES TO INTERLEUKIN-1BETA AND USES THEREOF” (ACADEMIA SINICA, priority 2020, published 2023):
“Also recorded” adds a separate entry of the source. Blank lines part the entries; values can stand above or below the compound they belong to.

What was measured:
[1] = tested on: IL-1β-induced NF-κB signaling in HEK-blue IL-1β cells; test: In vitro IL-1β neutralization assay in HEK-blue IL-1β reporter cells (SEAP); type: cell-based, human
Excerpt: FIG. 1 illustrates inhibitory effect on IL-1β-induced NF-κB signaling of different selected IgGs from generic human phage-display libraries in HEK-blue IL-1β cells. (A) IL-1β bound to its receptor IL-1RI and its receptor accessory protein IL-1RAcP to form the IL-1β/IL-1RI/IL-1RAcP ternary complex. IL-1β induces downstream signaling pathways, including NF-κB activation (IκB degradation) and AP-1 activation (phosphorylation of JNK, p38 and ERK). (B) Ten IgGs bound to human IL-1β were selected from the generic human phage-display library.
FIG. 4 illustrates the comparison of IL-1β neutralizing abilities in different IL-1β-neutralizing antibodies. IL-1β was diluted from 1500 to 0 pM. Each antibody was added at a 5 nM concentration with different concentrations of IL-1β. HEK-blue-IL-1β cells were used to detect the IgG inhibitory effects of IL-1β signaling. The binding curve was fitted by a nonlinear regression curve to obtain the IC50.
FIG. 8 illustrates binding affinities and inhibitory effects of IgG variants selected from optimized IgG26 phage-display libraries. […] (B) Inhibitory effects on IL-1β-mediated downstream signaling were examined in 30 pM IL-1β-stimulated HEK-blue reporter cells. […]
After 16 hours, the inhibitory effect of IL-1β-induced signaling was monitored by SEAP assay. […]

[2] = tested on: human IL-1β-induced IL-6; test: Cytokine biomarker assay: human IL-1β-induced serum IL-6 in mice; type: in vivo; details: 0.2 mg/kg antibody intravenously, human IL-1β 240 ng/mouse intraperitoneally, male C57BL/6 mice
Experimental: FIG. 5 illustrates cytokine biomarker assay. (A) The concentration of injected IgG1 at different time courses to compare the stability of IgG in male C57BL/6 mouse serum. […] Then, the mice were injected intraperitoneally with human IL-1β (240 ng/200 μL/mouse). Two hours after the injection, the mice were restrained, and blood was collected to detect the serum IL-6 level in the mice. IgG26AW treatment can inhibit the 40% induction of IL-6, which responds to human IL-1β boosting.
Then, the mice were injected intraperitoneally with recombinant human IL-1β (R&D systems) 240 ng/200 μL/mouse; then, 2.5 hours after the injection (peak IL-6 response time), the mice were restrained, and blood was collected via a facial vein with a lancet. Serum mouse IL-6 levels were measured using a Quantikine ELISA Kit (R&D System) according to the manufacturer's protocol.
To determine whether various rodent and primate disease models could be used to test the in vivo efficacy of IgG26AW, the ability of IgG26AW to bind a number of species orthologs of IL-1β was measured by SPR. […] This affinity is not sufficient to test IgG26AW efficacy in mouse disease models. […] Moreover, concentrations of IgGs after the injection in the serum were evaluated in different time courses.

[3] = molecular target: recombinant human IL-1β (117-269 amino acids, without the pro-peptide region) (human) (UniProt P01584)
[4] = molecular target: recombinant human IL-1β (R&D systems) (human) (UniProt P01584)

Compound: O=C(OC[C@H]1O[C@@H](OC(=O)c2cc(O)c(O)c(O)c2)[C@H](OC(=O)c2cc(O)c(O)c(O)c2)[C@@H](OC(=O)c2cc(O)c(O)c(O)c2)[C@@H]1OC(=O)c1cc(O)c(O)c(O)c1)c1cc(O)c(O)c(O)c1 [PGG, 1,2,3,4,6-Penta-O-Galloyl-β-D-Glucose]
- NF-κB signaling inhibition of low dose IgG26AW combined with PGG ([1]; 69 pM IgG26AW combined with 50 μM PGG, IL-1β 588 to 0 pM (FIG. 14)): efficiently inhibits the NF-κB signaling as similar as 690 pM IgG26AW can do
- effect of PGG cotreatment with IgG26AW on IL-1β induced NF-κB signaling ([1]; 75 pM IL-1β, IgG26AW 69 nM to 0 nM, PGG 30 μM or 50 μM (FIG. 13)): synergistically reduce NF-kB signaling; also recorded: dose-dependent inhibitory effect on NF-κB signaling

Compound: canakinumab: marketed anti-IL-1β antibody (Novartis), synthesized from patent US20090232803
- inhibition of human IL-1β-induced systemic (serum) IL-6 [2]: 47%

- IL-1β concentration whose NF-κB signal is half inhibited by 5 nM antibody (HEK-blue IL-1β cells, SEAP assay; called IC50 in the legend) [3]: 0.925 nM
- human IL-1β-induced systemic IL-6 expression in C57BL/6 mice (serum mouse IL-6, ELISA) [4]: 47%
Compound: canakinumab (antibody)
